In ChEMBL document CHEMBL1151054, “Fungal metabolite of naftazone inhibits nitrite production by activated murine macrophages” (Bioorg Med Chem Lett, 1995):

Key:
[1] = molecular target: T1, Nitric oxide synthase, inducible (Mus musculus, UniProt P29477); assay: Compound was tested for inhibition of inducible Nitric oxide synthase in activated murine macrophages.
T1 sequence (P29477 whole entry): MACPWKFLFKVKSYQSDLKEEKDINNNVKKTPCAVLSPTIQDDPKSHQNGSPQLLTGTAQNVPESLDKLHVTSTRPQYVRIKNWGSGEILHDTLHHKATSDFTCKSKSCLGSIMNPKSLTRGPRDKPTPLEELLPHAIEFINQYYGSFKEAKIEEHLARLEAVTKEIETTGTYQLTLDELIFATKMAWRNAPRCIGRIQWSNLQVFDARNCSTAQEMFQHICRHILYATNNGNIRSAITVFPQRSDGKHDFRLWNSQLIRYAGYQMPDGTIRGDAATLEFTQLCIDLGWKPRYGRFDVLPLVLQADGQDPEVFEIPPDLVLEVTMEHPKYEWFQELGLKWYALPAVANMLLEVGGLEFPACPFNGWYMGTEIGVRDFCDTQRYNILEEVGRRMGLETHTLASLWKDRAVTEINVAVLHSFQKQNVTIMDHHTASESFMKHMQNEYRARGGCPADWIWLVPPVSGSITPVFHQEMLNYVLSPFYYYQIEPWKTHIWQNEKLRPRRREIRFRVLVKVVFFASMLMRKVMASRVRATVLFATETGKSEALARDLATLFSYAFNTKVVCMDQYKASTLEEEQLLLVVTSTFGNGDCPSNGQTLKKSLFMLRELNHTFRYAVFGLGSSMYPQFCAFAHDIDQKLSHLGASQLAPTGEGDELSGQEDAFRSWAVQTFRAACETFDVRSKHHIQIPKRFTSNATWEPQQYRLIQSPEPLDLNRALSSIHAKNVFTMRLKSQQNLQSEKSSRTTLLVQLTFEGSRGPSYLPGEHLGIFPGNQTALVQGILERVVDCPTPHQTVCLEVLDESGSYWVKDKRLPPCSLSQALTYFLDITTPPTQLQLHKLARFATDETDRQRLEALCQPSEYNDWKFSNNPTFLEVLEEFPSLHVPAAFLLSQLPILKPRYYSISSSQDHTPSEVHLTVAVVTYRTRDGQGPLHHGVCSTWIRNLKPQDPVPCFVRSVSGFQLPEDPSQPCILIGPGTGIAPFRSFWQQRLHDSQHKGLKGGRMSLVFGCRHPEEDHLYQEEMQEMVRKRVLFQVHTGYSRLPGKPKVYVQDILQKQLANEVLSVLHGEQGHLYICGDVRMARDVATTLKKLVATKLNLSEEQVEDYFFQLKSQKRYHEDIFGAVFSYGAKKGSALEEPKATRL

[2] = Compound was tested for inhibition of constitutive bovine brain Nitric oxide synthase; format: tissue-based

Work on c1ccc(-n2ccnc2)cc1 yielded an IC50 [1] of 8 µM.
Compound O=c1nnc2ccc3c(c2[nH]1)=CCCC=3 has an IC50 [1] of 50 µM.
O=[N+]([O-])c1ccc2cn[nH]c2c1 gave an IC50 [2] of 2.5 µM and an IC50 [1] of 20 µM.
